Laboratory results: US20080145313A1, “Compositions and Methods for the Treatment and Prevention of Neoplastic Disorders” (Genesis Research & Development Corporation Limited, priority 2006, published 2008)

Experiments:
[1] = tested on: target transcript mRNA in A549 cells; experiment: Level of mRNA of target transcript in A549 cells by quantitative RT-PCR (Tables 12 and 13); type: cell-based, human; conditions: 24 h post-transfection; for mRNA knockdown of transporter gene target transcript, 0.1 nM / mRNA knockdown of energy and metabolism gene target transcript, 0.1 nM: 0.1 nM siRNA; for mRNA knockdown of transporter gene target transcript, 1 nM / mRNA knockdown of energy and metabolism gene target transcript, 1 nM: 1 nM siRNA
How it was run: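 A549 cells were transfected with siRNA at 0.1, 1.0 and 10 nM. RNA was extracted 24 h later, reverse-transcribed with random primers, and target mRNA quantified by SYBR Green qRT-PCR. Values were normalised to housekeeping genes HPRT and Lamin.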

[2] = tested on: A549 cells; experiment: Growth inhibition of siRNA-transfected A549 cells, SYBR Green I DNA content; type: cell-based, human; conditions: 10 nM siRNA, DNA content 96 hours after transfection; for Growth Inhibition in A549 cells by 10 nM siRNA: transporter gene targets
How it was run: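 A549 cells reverse-transfected with 10 nM Stealth siRNAs via Lipofectamine RNAiMAX, seeded at 5×10^3 cells/cm^2 in RPMI 1640/10% FCS; non-specific siRNA control. DNA content read 96 h post-transfection by SYBR Green I fluorescence (ex 485/em 535 nm) after freeze-thaw and Triton X-100 lysis; mean of three wells.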

Substance	mRNA knockdown of transporter gene target transcript, 0.1 nM [1]	mRNA knockdown of transporter gene target transcript, 1 nM [1]	Growth Inhibition in A549 cells by 10 nM siRNA [2]	mRNA knockdown of energy and metabolism gene target transcript, 0.1 nM [1]	mRNA knockdown of energy and metabolism gene target transcript, 1 nM [1]	Growth Inhibition in A549 cells [2]
SEQ ID NO: 4961: siRNA targeting ATP6V1F (chain 1 ATGTCATCCCGGTTTAGAAATTGCC; chain 2 AUGUCAUCCCGGUUUAGAAAUUGCC; chemistry not given here; one strand in two spellings)	++ (70-90% mRNA knockdown)	++ (70-90% mRNA knockdown)	− (no growth inhibition)	–	–	–
SEQ ID NO: 4962: siRNA targeting ATP6V1F (chain 1 TGGAGTCCTTGGCGGCGTCATATGG; chain 2 UGGAGUCCUUGGCGGCGUCAUAUGG; chemistry not given here; one strand in two spellings)	− (<50% mRNA knockdown)	+ (50-70% mRNA knockdown)	− (no growth inhibition)	–	–	–
SEQ ID NO: 4963: siRNA targeting ATP6V1F (chain 1 TAGCGCAGGTCTTCGGCAGTGAACA; chain 2 UAGCGCAGGUCUUCGGCAGUGAACA; chemistry not given here; one strand in two spellings)	++ (70-90% mRNA knockdown)	++ (70-90% mRNA knockdown)	− (no growth inhibition)	–	–	–
SEQ ID NO: 4964: siRNA targeting ATP7A (chain 1 TAACCATCATATATATCATCAGCCC; chain 2 UAACCAUCAUAUAUAUCAUCAGCCC; chemistry not given here; one strand in two spellings)	− (<50% mRNA knockdown)	− (<50% mRNA knockdown)	− (no growth inhibition)	–	–	–
SEQ ID NO: 4965: siRNA targeting ATP7A (chain 1 TTATAATGCAGTGTCATCATCTTCC; chain 2 UUAUAAUGCAGUGUCAUCAUCUUCC; chemistry not given here; one strand in two spellings)	− (<50% mRNA knockdown)	− (<50% mRNA knockdown)	− (no growth inhibition)	–	–	–
SEQ ID NO: 4966: siRNA targeting ATP7A (chain 1 ATAGCTCCCAATTTGAGGTACTTGG; chain 2 AUAGCUCCCAAUUUGAGGUACUUGG; chemistry not given here; one strand in two spellings)	− (<50% mRNA knockdown)	− (<50% mRNA knockdown)	− (no growth inhibition)	–	–	–
SEQ ID NO: 4967: siRNA targeting ATP7B (chain 1 AATTCTGGTTAGCAGAAGATAAAGG; chain 2 AAUUCUGGUUAGCAGAAGAUAAAGG; chemistry not given here; one strand in two spellings)	− (<50% mRNA knockdown)	− (<50% mRNA knockdown)	+ (inhibits by at least 50%)	–	–	–
SEQ ID NO: 4968: siRNA targeting ATP7B (chain 1 ATATCCCGTGGACCGATAATTTCCG; chain 2 AUAUCCCGUGGACCGAUAAUUUCCG; chemistry not given here; one strand in two spellings)	− (<50% mRNA knockdown)	++ (70-90% mRNA knockdown)	− (no growth inhibition)	–	–	–
SEQ ID NO: 4969: siRNA targeting ATP7B (chain 1 AAGGGAGCCACTTTGCTCTTGATGG; chain 2 AAGGGAGCCACUUUGCUCUUGAUGG; chemistry not given here; one strand in two spellings)	− (<50% mRNA knockdown)	++ (70-90% mRNA knockdown)	− (no growth inhibition)	–	–	–
SEQ ID NO: 4970: siRNA targeting ABCC4 (MRP4) (chain 1 AATCTTGGAAATCTCCTTCTTTCTC; chain 2 AAUCUUGGAAAUCUCCUUCUUUCUC; chemistry not given here; one strand in two spellings)	++ (70-90% mRNA knockdown)	++ (70-90% mRNA knockdown)	− (no growth inhibition)	–	–	–
SEQ ID NO: 4971: siRNA targeting ABCC4 (MRP4) (chain 1 CAATAATGGTGTTCAATCTGTGTGC; chain 2 CAAUAAUGGUGUUCAAUCUGUGUGC; chemistry not given here; one strand in two spellings)	− (<50% mRNA knockdown)	++ (70-90% mRNA knockdown)	− (no growth inhibition)	–	–	–
SEQ ID NO: 4972: siRNA targeting ABCC4 (MRP4) (chain 1 AAATAGTTAAGGTCGAGGGCTGTCC; chain 2 AAAUAGUUAAGGUCGAGGGCUGUCC; chemistry not given here; one strand in two spellings)	− (<50% mRNA knockdown)	++ (70-90% mRNA knockdown)	− (no growth inhibition)	–	–	–
SEQ ID NO: 4973: siRNA targeting ABCC5 (MRP5) (chain 1 TAAGATGGCAACAACGGGTCCTCCA; chain 2 UAAGAUGGCAACAACGGGUCCUCCA; chemistry not given here; one strand in two spellings)	− (<50% mRNA knockdown)	− (<50% mRNA knockdown)	− (no growth inhibition)	–	–	–
SEQ ID NO: 4974: siRNA targeting ABCC5 (MRP5) (chain 1 AACCTCTTCCATTAGAAACAAACTC; chain 2 AACCUCUUCCAUUAGAAACAAACUC; chemistry not given here; one strand in two spellings)	− (<50% mRNA knockdown)	+ (50-70% mRNA knockdown)	+ (inhibits by at least 50%)	–	–	–
SEQ ID NO: 4975: siRNA targeting ABCC5 (MRP5) (chain 1 ATTCTGAGCTGAGAATGCATGGAGG; chain 2 AUUCUGAGCUGAGAAUGCAUGGAGG; chemistry not given here; one strand in two spellings)	− (<50% mRNA knockdown)	+ (50-70% mRNA knockdown)	++ (inhibits by at least 75%)	–	–	–
SEQ ID NO: 4977: siRNA targeting ABCB1 (MDR1) (chain 1 AAACGATGAGCTATCACAATGGTGG; chain 2 AAACGAUGAGCUAUCACAAUGGUGG; chemistry not given here; one strand in two spellings)	− (<50% mRNA knockdown)	− (<50% mRNA knockdown)	− (no growth inhibition)	–	–	–
SEQ ID NO: 4978: siRNA targeting ABCB1 (MDR1) (chain 1 TTGGTACTAAGCTTTCTGTCTTGGG; chain 2 UUGGUACUAAGCUUUCUGUCUUGGG; chemistry not given here; one strand in two spellings)	− (<50% mRNA knockdown)	− (<50% mRNA knockdown)	− (no growth inhibition)	–	–	–
SEQ ID NO: 5306: Stealth siRNA targeting RRM2 (chain 1 TGTCCAGGTGTTTGAACATCAGGC; chain 2 UGUACCAGGUGUUUGAACAUCAGGC; Stealth siRNA, chemical pattern not given here)	–	–	–	++ (70-90% mRNA knockdown)	+ (50-70% mRNA knockdown)	++ (inhibits by at least 75%)
SEQ ID NO: 5308: Stealth siRNA targeting RRM2 (chain 1 TTATACATCTGCCAGATATCATGGT; chain 2 UUAUACAUCUGCCAGAUAUCAUGGU; Stealth siRNA, chemical pattern not given here; one strand in two spellings)	–	–	–	++ (70-90% mRNA knockdown)	++ (70-90% mRNA knockdown)	++ (inhibits by at least 75%)
